Assay results taken from patent US20190055231A1, “BACE1 INHIBITORS” (Hoffmann-La Roche Inc., priority 2016, published 2019).

Tests used:
[1] = target: T1, BACE1 (Homo sapiens, UniProt P56817); assay: BACE1 cell-free assay (BACE1 enzyme assay); type: biochemical
Source text: BACE1 Cell-Free Assay (BACE1 Enzyme Assay)
(§1) The determination of BACE1 activity can be either measured by using an enzymatic cell-free fluorescence assay (BACE1 cell free, table 2) or by a whole cell assay using HEK293 APP cells (Cellular Aβ-lowering, table 2). Both assays are suitable to determine BACE1 inhibition.

[2] = target: Human P-gp (Homo sapiens, UniProt P08183); assay: P-gp transport assay (human); type: in vitro ADME; details: efflux ratio
Chain of Human P-gp (P08183 whole entry): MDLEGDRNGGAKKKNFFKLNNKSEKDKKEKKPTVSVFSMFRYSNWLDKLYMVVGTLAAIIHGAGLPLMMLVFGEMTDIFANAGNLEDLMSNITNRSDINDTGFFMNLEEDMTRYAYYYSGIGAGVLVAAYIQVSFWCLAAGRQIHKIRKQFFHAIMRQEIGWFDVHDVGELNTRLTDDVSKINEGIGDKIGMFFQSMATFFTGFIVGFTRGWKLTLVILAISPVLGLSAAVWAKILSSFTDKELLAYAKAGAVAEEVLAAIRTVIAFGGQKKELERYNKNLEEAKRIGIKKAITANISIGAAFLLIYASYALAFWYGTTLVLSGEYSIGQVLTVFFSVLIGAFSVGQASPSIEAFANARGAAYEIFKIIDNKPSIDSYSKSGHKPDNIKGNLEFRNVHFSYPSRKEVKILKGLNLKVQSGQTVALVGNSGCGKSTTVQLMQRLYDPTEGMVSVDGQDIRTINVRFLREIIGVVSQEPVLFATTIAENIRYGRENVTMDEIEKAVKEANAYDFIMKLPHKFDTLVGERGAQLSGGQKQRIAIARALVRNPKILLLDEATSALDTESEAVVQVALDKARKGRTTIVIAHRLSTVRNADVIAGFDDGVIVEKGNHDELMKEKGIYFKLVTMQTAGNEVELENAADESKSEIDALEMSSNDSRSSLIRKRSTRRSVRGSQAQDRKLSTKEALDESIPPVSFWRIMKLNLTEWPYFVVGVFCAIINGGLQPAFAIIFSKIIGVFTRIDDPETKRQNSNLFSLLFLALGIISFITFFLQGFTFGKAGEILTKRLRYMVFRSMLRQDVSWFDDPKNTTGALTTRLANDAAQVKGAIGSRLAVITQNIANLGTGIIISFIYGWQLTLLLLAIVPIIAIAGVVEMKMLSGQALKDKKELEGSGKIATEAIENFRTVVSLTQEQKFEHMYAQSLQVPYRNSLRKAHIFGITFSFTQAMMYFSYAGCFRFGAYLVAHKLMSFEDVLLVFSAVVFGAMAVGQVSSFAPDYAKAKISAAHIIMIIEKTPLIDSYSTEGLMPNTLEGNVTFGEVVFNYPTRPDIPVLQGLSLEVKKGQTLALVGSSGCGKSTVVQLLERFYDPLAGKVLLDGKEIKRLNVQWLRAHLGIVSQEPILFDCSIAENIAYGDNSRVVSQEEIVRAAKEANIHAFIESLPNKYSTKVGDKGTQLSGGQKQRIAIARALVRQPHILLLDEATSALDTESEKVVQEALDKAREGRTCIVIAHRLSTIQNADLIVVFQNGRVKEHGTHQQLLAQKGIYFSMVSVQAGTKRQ
Source text: (§2) P-Gp Transport Assay (Human and Mouse) (P-Gp Assay)
(§3) In the assay of the P-gp efflux ratio ER as described hereinabove, a compound with ER<2.5 is regarded most suitable. In addition, compounds with low hERG channel binding are suitable as well.

[3] = system: Aβ40 in brain of wild-type mice; assay: Mouse acute in vivo model (inhibition of Aβ40 in brain of wild-type mice); details: 4 h post dose; for Brain Aβ-lowering 3 mg/kg: single p.o. dose 3 mg/kg; for Brain Aβ-lowering 10 mg/kg: single p.o. dose 10 mg/kg; for Brain Aβ-lowering 30 mg/kg: single p.o. dose 30 mg/kg
Procedure: Mouse Acute In Vivo Model (Inhibition of Aβ40 in Brain of Wild-Type Mice)
Single Dose Efficacy in Mice
The mouse single dose efficacy was measured in brain homogenate from C57Bl/6J wildtype mice after DEA extraction as described in H. Hilpert et al., J. Med. Chem. 2013, 56, 3980-3995 (dx.doi.org/10.1021/jm400225m).
Aβ 40 concentration was determined after solid phase extraction as described above and following a modified protocol from Perkin-Elmer with a commercially available antibody against the N-terminal part of rat Aβ (252Q6, Invitrogen cat. No. AMB0062) and an in-house C-terminal specific anti-Aβ40 antibody (BAP-24, Brockhaus M. et al., J. Neuroreport, 1998, 9:1481-1486) bound to acceptor beads (PerkinElmer, Cat. 6772002). 20 μl analyte per well (reconstituted extracts or standard) were loaded to a White Optiplate-96 (Perkin-Elmer, Cat#6005290). Then, a mixture of biotinylated BAP24 antibody (1:2000 diluted at approximately 1 nM final concentration) and antibody 252Q6 bound to AlphaLISA acceptor beads (Perkin-Elmer cat. No. 6772002 (1:100 diluted, 10 ug/mL final concentration) in 1× AlphaLISA buffer (Perkin-Elmer, AL000F) was added. After 1 hour room temperature incubation in the dark, 20 uL of a streptavidin coated donor beads dilution (40 μg/mL) were added and incubated for 30 minutes in the dark. Light emission at 615 nm was recorded using an EnVision AlphaScreen Reader (Perkin-Elmer). Levels of Aβ40 were calculated as percentage of the baseline samples from non-treated animals.
Aβ40 lowering was determined after oral administration in wild-type mice (C57Bl/6J mice, n=3-4) 4 h post dosing. Wild-type mice were used as they have a normal physiological level of APP expression and are thus expected to provide a better physiological model for Aβ-peptide production than APP-transgenic organisms. In vivo efficacy is a key factor for appropriate drug candidates, being more relevant than in vitro activities.

[4] = target: Mouse P-gp (Mus musculus, UniProt P21447); assay: P-gp transport assay (mouse); type: in vitro ADME; details: efflux ratio
Chain of Mouse P-gp (P21447 whole entry): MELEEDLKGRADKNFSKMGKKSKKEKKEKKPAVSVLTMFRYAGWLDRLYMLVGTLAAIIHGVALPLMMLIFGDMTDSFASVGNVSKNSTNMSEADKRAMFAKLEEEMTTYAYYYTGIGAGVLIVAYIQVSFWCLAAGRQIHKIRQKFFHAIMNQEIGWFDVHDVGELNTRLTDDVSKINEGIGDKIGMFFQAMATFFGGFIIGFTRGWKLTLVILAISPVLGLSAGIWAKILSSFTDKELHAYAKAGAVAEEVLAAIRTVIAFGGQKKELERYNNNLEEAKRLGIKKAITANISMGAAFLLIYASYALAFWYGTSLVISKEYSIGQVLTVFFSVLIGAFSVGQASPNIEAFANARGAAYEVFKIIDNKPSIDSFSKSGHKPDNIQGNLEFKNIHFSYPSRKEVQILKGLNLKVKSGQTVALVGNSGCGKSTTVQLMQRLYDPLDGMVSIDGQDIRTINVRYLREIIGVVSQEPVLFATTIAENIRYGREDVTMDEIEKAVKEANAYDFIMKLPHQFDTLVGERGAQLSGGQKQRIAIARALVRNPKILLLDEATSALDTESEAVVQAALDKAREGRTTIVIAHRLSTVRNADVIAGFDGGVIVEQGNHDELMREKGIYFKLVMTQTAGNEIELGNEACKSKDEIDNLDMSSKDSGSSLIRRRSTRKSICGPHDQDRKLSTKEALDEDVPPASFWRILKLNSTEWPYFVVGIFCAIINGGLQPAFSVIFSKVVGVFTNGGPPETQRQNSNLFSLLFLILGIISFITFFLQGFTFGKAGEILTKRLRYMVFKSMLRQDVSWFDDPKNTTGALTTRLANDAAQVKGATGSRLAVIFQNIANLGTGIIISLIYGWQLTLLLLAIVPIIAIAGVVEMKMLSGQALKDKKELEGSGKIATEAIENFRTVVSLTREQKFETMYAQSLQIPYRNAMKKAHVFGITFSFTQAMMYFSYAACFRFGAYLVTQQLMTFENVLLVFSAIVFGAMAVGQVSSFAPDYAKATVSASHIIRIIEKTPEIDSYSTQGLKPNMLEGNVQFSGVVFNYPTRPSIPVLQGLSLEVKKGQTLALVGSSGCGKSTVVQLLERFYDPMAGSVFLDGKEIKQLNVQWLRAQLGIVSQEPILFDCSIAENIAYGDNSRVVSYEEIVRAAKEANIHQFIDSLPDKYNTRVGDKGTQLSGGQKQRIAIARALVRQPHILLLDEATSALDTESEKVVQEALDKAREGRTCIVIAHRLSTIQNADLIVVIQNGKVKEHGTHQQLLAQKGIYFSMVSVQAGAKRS
Source text: as §2, §3

[5] = target: T2, BACE2 (Homo sapiens, UniProt Q9Y5Z0); assay: BACE2 cell-free assay (BACE2 enzyme assay); type: biochemical; details: BACE2 IC50 divided by BACE1 IC50, cell free assays
T2 sequence (Q9Y5Z0 63-518): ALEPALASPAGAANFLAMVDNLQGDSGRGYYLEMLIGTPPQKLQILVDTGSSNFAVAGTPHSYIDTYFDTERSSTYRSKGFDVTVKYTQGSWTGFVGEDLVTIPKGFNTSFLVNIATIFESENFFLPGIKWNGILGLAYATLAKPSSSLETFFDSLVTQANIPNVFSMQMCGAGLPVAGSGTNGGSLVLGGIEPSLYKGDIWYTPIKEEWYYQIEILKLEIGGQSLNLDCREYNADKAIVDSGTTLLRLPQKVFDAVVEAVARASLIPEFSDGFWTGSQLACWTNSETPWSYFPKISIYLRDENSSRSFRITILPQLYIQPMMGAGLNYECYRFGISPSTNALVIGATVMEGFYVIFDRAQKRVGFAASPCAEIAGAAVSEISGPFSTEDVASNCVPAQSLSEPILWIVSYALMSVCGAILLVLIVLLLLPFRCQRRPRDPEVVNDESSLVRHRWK
Source text: BACE2 Cell-Free Assay (BACE2 Enzyme Assay)
Selectivity versus related targets is important in terms of safety of a drug candidate. BACE2 is a close homolog of BACE1. BACE2 was recently reported to play a crucial role in pigmentation of the skin by processing pigment cell-specific melanocyte protein (PMEL). (Proc Natl Acad Sci USA. 2013 Jun. 25; 110(26):10658-63. doi: 10.1073/pnas.1220748110. Epub 2013 Jun. 10). It is believed that PMEL contributes in melanogenesis. Therefore, selectivity versus BACE2 is advantageous when it comes to pigmentation of the skin. The selectivity ratio of BACE2/BACE1 IC50 was calculated by dividing the BACE2 IC50 value by the BACE1 IC50 value determined each in the cell free assay. […] This implies a 3-fold improvement of example 1 compared to comparators 4 and 5.

[6] = target: T1, BACE1; assay: Cellular Aβ-lowering assay (Abeta 40 AlphaLISA, HEK293 APP cells); type: cell-based; design: endogenous in cells; host or cells: HEK293 APP cells
Procedure: Cellular Aβ-Lowering Assay:
The Abeta 40 AlphaLISA Assay can be used. The HEK293 APP cells were seeded in 96 well Microtiter plates in cell culture medium (Iscove's, plus 10% (v/v) fetal bovine serum, penicillin/streptomycin) to about 80% confluency and the compounds were added at a 3× concentration in ⅓ volume of culture medium (final DMSO concentration was kept at 1% v/v). After 18-20 hrs incubation at 37° C. and 5% CO2 in a humidified incubator, the culture supernatants were harvested for the determination of AP 40 concentrations using Perkin-Elmer Human Amyloid beta 1-40 (high specificity) Kit (Cat#AL275C).
In a Perkin-Elmer White Optiplate-384 (Cat#6007290), 2 ul culture supernatants were combined with 2 μl of a 10× AlphaLISA Anti-hAP Acceptor beads+Biotinylated Antibody Anti-Aβ 1-40 Mix (50 μg/mL/5 nM). After 1 hour room temperature incubation, 16 μl of a 1.25× preparation of Streptavidin (SA) Donor beads (25 μg/mL) were added and incubated for 30 minutes in the Dark. Light Emission at 615 nm was then recorded using EnVision-Alpha Reader. Levels of AP 40 in the culture supernatants were calculated as percentage of maximum signal (cells treated with 1% DMSO without inhibitor). The IC50 value were calculated using the Excel XLfit software.
Cellular Aβ-Lowering Assay (Cell-Based Assay)
as §1

[7] = target: hERG channel (Homo sapiens, UniProt Q12809); assay: hERG IC20 assay; type: cell-based; details: for IC20: human, hERG IC20 assay
Chain of hERG channel (Q12809 whole entry): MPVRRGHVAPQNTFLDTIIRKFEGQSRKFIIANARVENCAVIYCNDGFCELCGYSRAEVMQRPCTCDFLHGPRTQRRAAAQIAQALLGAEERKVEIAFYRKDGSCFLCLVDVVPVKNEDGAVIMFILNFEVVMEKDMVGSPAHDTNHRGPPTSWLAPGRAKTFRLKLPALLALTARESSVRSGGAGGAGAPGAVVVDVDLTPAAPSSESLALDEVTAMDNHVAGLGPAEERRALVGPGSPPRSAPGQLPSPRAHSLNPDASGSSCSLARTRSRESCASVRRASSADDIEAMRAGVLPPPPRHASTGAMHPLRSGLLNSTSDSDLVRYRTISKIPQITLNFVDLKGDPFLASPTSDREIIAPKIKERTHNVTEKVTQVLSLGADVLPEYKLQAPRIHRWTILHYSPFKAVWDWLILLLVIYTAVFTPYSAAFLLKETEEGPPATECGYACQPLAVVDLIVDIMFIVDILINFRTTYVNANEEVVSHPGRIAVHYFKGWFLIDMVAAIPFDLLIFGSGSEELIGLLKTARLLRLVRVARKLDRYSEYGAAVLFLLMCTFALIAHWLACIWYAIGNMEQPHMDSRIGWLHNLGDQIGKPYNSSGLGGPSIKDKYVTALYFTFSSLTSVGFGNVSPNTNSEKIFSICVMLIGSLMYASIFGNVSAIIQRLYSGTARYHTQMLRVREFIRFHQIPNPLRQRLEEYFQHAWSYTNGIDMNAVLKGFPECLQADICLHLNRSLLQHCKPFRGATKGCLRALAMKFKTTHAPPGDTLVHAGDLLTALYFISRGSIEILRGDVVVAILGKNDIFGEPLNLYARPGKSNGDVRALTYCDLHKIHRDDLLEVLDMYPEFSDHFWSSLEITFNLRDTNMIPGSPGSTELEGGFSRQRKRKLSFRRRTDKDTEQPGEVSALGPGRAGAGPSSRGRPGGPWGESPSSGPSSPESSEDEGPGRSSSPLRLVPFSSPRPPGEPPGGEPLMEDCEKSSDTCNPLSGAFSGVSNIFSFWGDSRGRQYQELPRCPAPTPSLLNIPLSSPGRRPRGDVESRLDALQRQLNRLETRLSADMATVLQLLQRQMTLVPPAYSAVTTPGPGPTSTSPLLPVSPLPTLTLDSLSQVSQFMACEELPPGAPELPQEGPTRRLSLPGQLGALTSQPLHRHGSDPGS
Source text: The methods to determine the hERG IC20 values was described in Industrializing electrophysiology: HT automated patch clamp on SyncroPatch® 96 using instant frozen cells. Polonchuk L., Methods Mol Biol. 2014; 1183:81-92. (doi: 10.1007/978-1-4939-1096-0_5.) PMID:25023303
QT prolongation is a cardiovascular risk caused by drug candidates which inhibit the hERG channel (human ether a go-go). A sufficient safety margin between the hERG IC20 value and the free plasma concentration necessary to achieve the envisaged thereapeutic effects is desired (ICH. The nonclinical evaluation of the potential for delayed ventricular repolarization (QT interval prolongation) by human pharmaceuticals (S7B), issued as CPMP/ICH/423/02, adopted by CHMP in May 2005 (http://www.ich.org/cache/compo/276-254-1.html; Redfern W S, Carlsson L, Davis A S, Lynch W G, MacKenzie I, Palethorpe S, Siegl P K, Strang I, Sullivan A T, Wallis R, Camm A J, Hammond T G. Relationships between preclinical cardiac electrophysiology, clinical QT interval prolongation and torsade de pointes for a broad range of drugs: evidence for a provisional safety margin in drug development. Cardiovasc Res. 2003 Apr. 1; 58(1):32-45.)). Reducing the activity against efflux transporters expressed at the blood-brain-barrier such as P-glycoprotein P-gp, might result in reduction of the free plasma concentration by optimizing brain penetration.

[8] = HEK293 APP cells, Aβ40 in supernatant, read-out: BACE1 cell act. Aβ40 IC50

T1 sequence (P56817 46-501): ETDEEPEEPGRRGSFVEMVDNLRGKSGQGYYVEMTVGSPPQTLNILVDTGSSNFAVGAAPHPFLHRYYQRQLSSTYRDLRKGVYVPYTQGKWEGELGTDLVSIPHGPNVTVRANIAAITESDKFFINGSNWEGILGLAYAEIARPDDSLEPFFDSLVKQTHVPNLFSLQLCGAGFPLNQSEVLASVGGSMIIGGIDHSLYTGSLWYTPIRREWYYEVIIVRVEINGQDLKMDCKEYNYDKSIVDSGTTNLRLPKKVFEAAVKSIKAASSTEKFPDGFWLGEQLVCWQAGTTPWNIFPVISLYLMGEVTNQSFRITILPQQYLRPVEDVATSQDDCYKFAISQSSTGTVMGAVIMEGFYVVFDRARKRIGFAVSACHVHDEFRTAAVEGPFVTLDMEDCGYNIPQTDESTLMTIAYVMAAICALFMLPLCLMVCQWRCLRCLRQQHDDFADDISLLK

Row | Compound | IC50 [1] | Human P-gp ER [2] | Brain Aβ-lowering 3 mg/kg [3] | Brain Aβ-lowering 10 mg/kg [3] | Brain Aβ-lowering 30 mg/kg [3] | Mouse P-gp ER [4] | BACE2/BACE1 IC50 ratio [5] | IC50 [6, 8] | IC50 ([6]; read-out: cellular potency) | higher affinity to hERG than example 1 [7] | IC20 [7] | Brain Aβ-lowering 3 mg/kg ([3]; listed as comparator 5) | IC20 ([7]; instant frozen cells (hERG channel, automated patch clamp))
1 | C[C@]1(c2nc(NC(=O)c3ccc(C#N)cn3)ccc2F)N=C(N)O[C@H](C(F)(F)F)C1(F)F [Comparator 1, N-(6-((4R,6S)-2-Amino-5,5-difluoro-4-methyl-6-(trifluoromethyl)-5,6-dihydro-4H-1,3-oxazin-4-yl)-5-fluoropyridin-2-yl)-5-cyanopicolinamide] | 29 nM | 1.4 | 2% | 4% | 66% | 1.3 | 3.0 | 324 nM |  |  |  |  | 
2 | Cc1cc(C#N)cnc1C(=O)Nc1ccc(F)c([C@@]2(C)N=C(N)O[C@H](C(F)(F)F)C2(F)F)n1 [Comparator 2, N-(6-((4R,6S)-2-Amino-5,5-difluoro-4-methyl-6-(trifluoromethyl)-5,6-dihydro-4H-1,3-oxazin-4-yl)-5-fluoropyridin-2-yl)-5-cyano-3-methylpicolinamide] | 19 nM |  | 10% | 42% |  | 1.4 | 3.0 | 203 nM |  |  |  |  | 
3 | C[C@]1(c2nc(NC(=O)c3ccc(C#N)cn3)ccc2F)N=C(N)O[C@@H](C(F)(F)F)C1(F)F [Comparator 3, N-(6-((4R,6R)-2-Amino-5,5-difluoro-4-methyl-6-(trifluoromethyl)-5,6-dihydro-4H-1,3-oxazin-4-yl)-5-fluoropyridin-2-yl)-5-cyanopicolinamide] |  |  |  |  |  |  |  | 37400 nM | > 35000 nM |  |  |  | 
4 | C[C@]1(c2nc(NC(=O)c3ccc(C#N)cn3)ccc2F)N=C(N)O[C@@H](C(F)(F)F)[C@@H]1F [Comparator 7] |  |  |  |  | 70% |  |  |  |  |  |  |  | 
5 | Cc1cc(C#N)cnc1C(=O)Nc1ccc(F)c([C@]2(C)C[C@@H](C(F)(F)F)OC(N)=N2)n1 [Comparator 5] |  | 3.3 | 7% | 70% |  | 8.1 |  |  |  | 5.3 fold | 440 nM | 7% | 
6 | C[C@@]1(c2nc(NC(=O)c3ccc(C#N)cn3)ccc2F)C[C@@H](C(F)(F)F)OC(N)=N1 [Comparator 4] | 33 nM |  |  |  |  |  |  | 4 nM |  |  | 40 nM |  | 40 nM
